Bridges are numbered along the chain shown (N, C = ends). Where no end group is shown, it is not given here.

The subject of experiment [1] is TLR4 signaling pathway. The experiment in a line: TLR4 signaling pathway in HEK cells, SEAP production (IL-10 mimetic peptides). The format is cell-based. As to conditions: cells pretreated with LPS 100 ng/ml, peptides added; 12 hours. On the procedure: (§1) In order to investigate the ability of synthetic peptides with affinity to the Interleukin-10 receptor to interfere in the NFkB, IFN and TLR4 pathways, reporter cell lines were used. To analyze whether the isolated peptides (without activation molecules) could induce any type of activation, the isolated peptides were tested in cell lines during 12, 24 and 48 hours of treatment. […] As an example, FIG. 13A, FIG. 13B, and FIG. 13C show an analysis of NFkB expression after stimulation with the synthesized IL-10 receptor affinity synthetic peptides described herein. Cells were treated for 12, 24 and 48 hours with the synthesized peptides Pep 1-IL10, Pep 2-IL10, Pep 3-IL10 and Pep 4-IL10, at different concentrations, without activating molecules. Luciferase was then measured after 12 hours of treatment (FIG. 13A), 24 hours of treatment (FIG. 13B) and 48 hours of treatment (FIG. 13C). […] TNF-α (200 ng/mL) was used as a positive control.
HEK cells were used to investigate the ability of the synthesized peptides Pep 1-IL10, Pep 2-IL10, Pep 3-IL10 and Pep 4-IL10 to modulate the activation of the TLR4 signaling pathway after 12 hours of treatment. […]
In the assay shown by FIG. 14A cells were treated 1 hour with peptides and LPS (100 ng/ml) was added. SEAP production was measured after 12 hours of treatment. […] SEAP production was measured after 12 hours of treatment. […]

In experiment [2] the test system is NFkB pathway. The experiment in a line: NFkB expression in Jurkat-Dual reporter cells, luciferase (IL-10 mimetic peptides). The conditions noted are these: without activating molecules; 12, 24 and 48 hours; different concentrations. The format is cell-based. As to the method:
as §1
The assay was then carried out using TNF-α as activation molecule not only in the control, but after a pretreatment with the synthesized peptides Pep 1-IL10, Pep 2-IL10, Pep 3-IL10 and Pep 4-IL10, at different concentrations. All peptides were able to modulate NFKB activation after 12, 24 and 48 hours, with different results depending on the concentrations used. […] In the assays shown by FIGS. 14 A, B and C, analysis of NFkB expression was performed in Jurkat-Dual reporter cells. Cells were treated for 1 hour with peptides and TNF-α (200 ng/ml) added. Luciferase was measured after 12 hours of treatment (FIG. 14A), 24 hours of treatment (FIG. 14B) and 48 hours of treatment (FIG. 14C).
Another assay was then performed in which cells were pretreated with TNF-α and the synthesized peptides Pep 1-IL10, Pep 2-IL10, Pep 3-IL10 and Pep 4-IL10, at different concentrations, were added later. All peptides were able to modulate NFKB activation after 12, 24 and 48 hours, with different results depending on the concentrations used. The most significant results will be described below. […] After 48 hours of treatment, Pep 1-IL-10 at a concentration of 0.001 μM (P<0.05) was the one that obtained a result with the highest statistical significance in the decrease of NFKB signaling (FIG. 15C). In the assays shown by FIGS. 15 A, B and C, analysis of NFkB expression was performed in Jurkat-Dual reporter cells. Cells were treated for 1 hour with TNF-α (200 ng/ml) and peptides were added. Luciferase was measured after 12 hours of treatment (FIG. 15A), 24 hours of treatment (FIG. 15B) and 48 hours of treatment (FIG. 15C). TNF-α (200 ng/mL) was used as a positive control and rlL-10 (recombinant Interleukin-10) (0.4 ng/mL) as a negative control. *P<0.05; **P<0.005; ***P<0.0005.

Experiment [3] deals with IFN signaling pathway. The experiment in a line: IFN signaling pathway in Jurkat-Dual reporter cells, SEAP production. It is filed as cell-based. The conditions noted are these: after 12, 24 and 48 hours; results depend on concentration. On the procedure:
as §1
The most significant results will be described below. […] When cells were pretreated with IFN, although peptides at some concentrations indicated results, they were not statistically sufficient. Therefore, we cannot confirm whether they were able to interfere with pathway activation (FIGS. 17 A, B and C) in an equal or better way than the negative control (rIL-10). In the assays shown by FIGS. 16 (A, B and C) and FIGS. 17 (A, B and C), analysis of IFN expression was performed in Jurkat-Dual reporter cells. In the assays shown by FIGS. 16 A, B and C, cells were treated for 1 hour with peptides with further addition of IFN-α (104 EU/ml). Secreted Embryonic Alkaline Phosphatase (SEAP) production was measured after 12 hours of treatment (FIG. 16A), 24 hours of treatment (FIG. 16 B) and 48 hours of treatment (FIG. 16 C). In the assays shown by FIGS. 17A, B and C, cells were treated for 1 hour with IFN-α (104 EU/ml) with further addition of the peptides. SEAP production was measured after (A) 12 hours of treatment (B), 24 hours of treatment and (C) 48 hours of treatment. IFN-α (104 EU/ml) was used as a positive control and rlL-10 (0.4 ng/ml) as a negative control. *P<0.05.

Experiment [4] deals with splenocytes of mice sensitized with Phl p 5. Description: Luminex Multiplex cytokine analysis of supernatants from restimulated splenocytes. It is filed as in vivo. On the procedure: (§2) To determine the number of splenic cells producing IFN-g, IL-4 and IL-10 in all groups of mice, an ELISPOT assay was performed. […] To investigate the cytokine profile in supernatants from restimulated splenocytes, a Luminex Multiplex cytokine analysis kit was used. […] Furthermore, an increase in IL-10 levels was observed.

Experiment [5] has the same test system. The experiment in a line: ELISPOT of splenocytes stimulated with Phl p5. The format is in vivo. On the procedure:
as §2

The test system of experiment [6] is mice sensitized by Phl p5. The experiment in a line: murine sensitization model with recombinant Phl p5: antibody response. The format is in vivo. The source says:
We then tested the ability of the synthesized TGF-β1 mimetic peptides to modulate the in vivo immune response during allergic sensitization to Phl p 5. We selected as an example Pep 2-TGF-β1 to show the results. […] Therefore, Pep 2-TGF-β1 modulated Phl p5-specific antibody responses in mice.

The test system of experiment [7] is TGF-β1 receptor on A549 cells. Description: ELISA on cells of the A549 line using anti-TGF-β1 antibody. The format is binding, human. On the procedure: The peptides described in this patent application were selected using the Phage Display (PD) methodology. The selection was performed by evaluating the ability of said peptides to recognize the TGF-β1 receptor on A549 cells, using an ELISA assay. MaxiSorp 96-well microtiter plates were coated with 1×10^6 cells diluted in PBS and incubated overnight at 4° C. Cells were blocked with 3% PBS-BSA for 1 h at 37° C., washed once with PBS and incubated with […] of each TGF-β1 mimetic peptide or 5 ng/ml of recombinant TGF-β1 for 1 h at 37° C. After washing, the plate was incubated for 1 h at 37° C. with anti-TGF-β1 antibody. The plate was washed and incubated with HRP-labeled anti-human IgG antibody for 1 h at 37° C. After washing, TMB substrate solution was added to the plate; the reaction was stopped by adding the 2N H2SO4 solution and read at 492 nm in a microplate reader.
To investigate whether the synthesized peptides could bind to cell receptors, an ELISA assay was performed on cells of the A549 line using commercial anti-TGF-β1 antibody.
(In general: ELISA stands for enzyme-linked immunosorbent assay.)

Experiment [8] deals with TH2 polarization in skin-draining inguinal lymph node cells. Description: TH2 polarization in IL-4 reporter (4get) mice, GFP+CD4+ lymphocytes by flow cytometry. It is filed as in vivo. As to conditions: 5 days after immunization, administered with grass pollen extract. The source says: TH2 lymphocytes produce cytokines such as IL-4, IL-5 and IL-13 and lead to the class shift of immunoglobulin production from B cells to IgE, which triggers the allergic reaction. To investigate whether synthesized peptides mimetic to TGF-β1 can modulate TH2 polarization in the presence of grass pollen extract or rPhl p 5, we used an IL-4 reporter mouse. 4get mice express GFP as part of a bicistronic IL-4-IRES-GFP mRNA, allowing the identification of cells expressing IL-4 in situ during an allergen-induced TH2 response. In this experiment, we use skin-draining inguinal lymph node cells to monitor the TH2 response. […] In summary, in this IL-4 mice model, Pep 2 administered in combination with grass pollen extract was able to inhibit TH2 polarization in skin-draining inguinal lymph node cells.
On the technique in general: A flow cytometer gives signals particle by particle.

In experiment [9] the test system is Treg cells. Description: flow cytometry of CD4+CD25+Foxp3+ cells in splenocytes from BALB/c mice. The format is in vivo. The source says:
To investigate the influence of synthesized peptides mimetic to TGF-β1 on Treg induction specific to Phl p5 during allergic sensitization, we analyzed splenocytes from BALB/c mice using flow cytometry. We sought to investigate CD4+CD25+Foxp3+cells expressing GATA3, CTLA4 or KI67, as these factors are necessary for the survival and function of Treg cells. […] The percentage of CD4+CD25+Foxp3+T cells expressing the CTLA4 factor in mice without sensitization and sensitized with Phl p 5 was 5.62% and 9.46%, respectively, while in mice treated with Pep 2-TGF-β1 this value was 12.5% (FIG. 10C-D).

“Pep 2-IL-10: synthetic peptide with affinity to the Interleukin-10 receptor, SEQ ID NO: 10, without disulfide bridge (HASSAVIKSSSGGGS)”: the “concentrations that significantly reduced TLR4 pathway activation” value in experiment [1] is 100 μM (P<0.05), 1 μM (P<0.005), 0.5 μM (P<0.05), 0.1 μM (P<0.05), 0.05 μM (P<0.05) and 0.01 μM. Besides, in experiment [2], the “induction of NFkB expression by peptides alone” value is “not able to induce any response”. Further, in experiment [3], the “modulation of the activation of the IFN signaling pathway” value was “able to modulate the activation of the IFN signaling pathway”.

Consider “Pep 2-TGF-β1: synthetic peptide with affinity to the TGF-β receptor, SEQ ID N 02, with disulfide bridges (HACESPLKRQCGGGS; disulfide 3-11)”, for which, in experiment [4], the “IFN-g secretion in splenocyte supernatant vs untreated mice” value is “significantly lower”, the “IL-2 secretion in splenocyte supernatant vs untreated mice” value is recorded as “significantly lower”, the “IL-4 secretion in splenocyte supernatant vs untreated mice” value is “significantly lower” and the “IL-5 secretion in splenocyte supernatant vs untreated mice” value was “significantly lower”. Also, in experiment [4], the “IL-10 secretion in splenocyte supernatant vs untreated mice” value is “higher” and the “IL-13 secretion in splenocyte supernatant vs untreated mice” value was “significantly lower”. In experiment [5], the “IFN-g secreted by splenocytes (ELISPOT) vs untreated mice” value is listed as “significantly lower”, the “IL-4 secreted by splenocytes (ELISPOT) vs untreated mice” value is reported as “significantly lower” and the “IL-10 levels of splenocytes (ELISPOT) vs untreated mice” value is “significantly higher”. Besides, in experiment [6] (1 μM, intradermal immunization with Phl p5), the “degranulation of RBL cells sensitized with sera from treated mice vs Phl p 5 immunized group” value is “significantly lower levels of degranulation”. In addition, in experiment [6] (mice sensitized by Phl p5), the “serum IgA levels (ELISA)” value is on record as “increased levels of IgA”, the “serum IgE levels (ELISA)” value is “suppressed” and the “serum IgG1 levels (ELISA)” value is reported as “suppressed”. Moreover, in experiment [6] (mice sensitized by Phl p5, not statistically significant), the “serum IgG2a levels (ELISA)” value is “suppressed”. In addition, in [7], the “recognition of receptor-bound peptide by anti-TGF-β1 antibody compared to recombinant TGF-β1” value was “in the same way that the antibody recognized the TGF-β1 recombinant molecule”. In [8], the “TH2 polarization (GFP+CD4+ lymphocytes)” value was “suppressed TH2 polarization”. The “Treg cells expressing the factor GATA3 (of total T cells)” value in experiment [9] (mice sensitized with Phl p5 and treated, control 16.1%, sensitized 16.2%) is on record as 43.9%. For the same substance, the “percentage of CD4+CD25+Foxp3+T cells expressing the CTLA4 factor” value in experiment [9] (mice sensitized with Phl p5 and treated, no sensitization 5.62%, sensitized 9.46%) is listed as 12.5%. For the same substance, the “percentage of CD4+CD25+Foxp3+cells expressing factor KI67” value in experiment [9] (vs Phl p5-sensitized mice, not significantly different) is “enriched”.

(Values after patent US20220193185A1, “COMBINATION OF SYNTHETIC PEPTIDES WITH AFFINITY TO THE TGF-ß RECEPTOR AND WITH AFFINITY TO THE IL-10 RECEPTOR, PHARMACEUTICAL COMPOSITION AND THEIR USE AS IMMUNOMODULATORS IN THE TREATMENT OF AUTOIMMUNE, INFLAMMATORY OR ALLERGIC DISEASES” (Universidade Federal de Uberlândia, priority 2019, published 2022).)
